Assay results published in ChEMBL document CHEMBL5104157, “Design, synthesis and biological evaluation of light-driven on-off multitarget AChE and MAO-B inhibitors” (RSC Med Chem, 2022).

Legend:
[1] = target: T1, MAO-A (amine oxidase [flavin-containing] A) (Homo sapiens, UniProt P21397); assay: Inhibition of human recombinant MAO-A assessed as reduction in 4-hydroxyquinoline level using kynuramine as a substrate at 10 uM preincubated for 5 mins followed by substrate addition by spectrofluorimetric analysis; details: probe kynuramine
T1 sequence (P21397 whole entry): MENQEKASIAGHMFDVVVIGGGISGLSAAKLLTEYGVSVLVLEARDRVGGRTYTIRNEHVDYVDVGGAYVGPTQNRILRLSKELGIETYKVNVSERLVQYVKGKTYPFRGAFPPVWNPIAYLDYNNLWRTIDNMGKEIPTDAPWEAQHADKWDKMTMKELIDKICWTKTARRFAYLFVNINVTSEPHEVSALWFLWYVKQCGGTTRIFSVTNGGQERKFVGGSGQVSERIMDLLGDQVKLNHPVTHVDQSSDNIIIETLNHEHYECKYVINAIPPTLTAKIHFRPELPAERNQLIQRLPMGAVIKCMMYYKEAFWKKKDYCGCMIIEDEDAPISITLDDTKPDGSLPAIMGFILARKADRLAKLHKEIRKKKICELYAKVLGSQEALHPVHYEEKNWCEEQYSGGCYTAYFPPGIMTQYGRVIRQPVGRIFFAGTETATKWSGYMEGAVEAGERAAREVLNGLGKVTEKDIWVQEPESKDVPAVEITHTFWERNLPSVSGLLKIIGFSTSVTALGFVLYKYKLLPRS

[2] = target: Cholinesterase (Homo sapiens) (UniProt P06276); assay: Inhibition of human serum recombinant BChE using butyrylthiocholine iodide as a substrate at 10 uM incubated for 20 mins by DTNB reagent based Ellman's method; type: cell-free
Sequence of Cholinesterase (Homo sapiens) (P06276 whole entry): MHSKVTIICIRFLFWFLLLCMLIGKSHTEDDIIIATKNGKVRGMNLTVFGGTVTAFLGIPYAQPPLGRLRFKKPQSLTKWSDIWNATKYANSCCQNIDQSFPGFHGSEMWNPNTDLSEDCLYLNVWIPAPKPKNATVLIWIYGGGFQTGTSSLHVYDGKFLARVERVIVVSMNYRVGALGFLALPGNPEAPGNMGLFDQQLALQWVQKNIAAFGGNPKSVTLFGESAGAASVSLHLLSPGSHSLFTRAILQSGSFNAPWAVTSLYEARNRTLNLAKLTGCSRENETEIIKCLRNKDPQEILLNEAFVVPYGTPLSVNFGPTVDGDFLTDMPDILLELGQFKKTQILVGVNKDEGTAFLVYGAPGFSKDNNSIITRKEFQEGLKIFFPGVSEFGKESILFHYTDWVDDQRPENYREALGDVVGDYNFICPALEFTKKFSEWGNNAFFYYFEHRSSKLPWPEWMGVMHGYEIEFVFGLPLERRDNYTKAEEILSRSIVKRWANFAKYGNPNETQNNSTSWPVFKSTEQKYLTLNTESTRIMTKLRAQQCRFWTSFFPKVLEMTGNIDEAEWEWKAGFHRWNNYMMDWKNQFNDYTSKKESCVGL

Acetylcholinesterase = Acetylcholinesterase (Homo sapiens, UniProt P22303); assay: Inhibition of human serum recombinant AChE using acetylthiocholine iodide as a substrate incubated for 20 mins by DTNB reagent based Ellman's method; type: cell-free
Sequence of Acetylcholinesterase (P22303 whole entry): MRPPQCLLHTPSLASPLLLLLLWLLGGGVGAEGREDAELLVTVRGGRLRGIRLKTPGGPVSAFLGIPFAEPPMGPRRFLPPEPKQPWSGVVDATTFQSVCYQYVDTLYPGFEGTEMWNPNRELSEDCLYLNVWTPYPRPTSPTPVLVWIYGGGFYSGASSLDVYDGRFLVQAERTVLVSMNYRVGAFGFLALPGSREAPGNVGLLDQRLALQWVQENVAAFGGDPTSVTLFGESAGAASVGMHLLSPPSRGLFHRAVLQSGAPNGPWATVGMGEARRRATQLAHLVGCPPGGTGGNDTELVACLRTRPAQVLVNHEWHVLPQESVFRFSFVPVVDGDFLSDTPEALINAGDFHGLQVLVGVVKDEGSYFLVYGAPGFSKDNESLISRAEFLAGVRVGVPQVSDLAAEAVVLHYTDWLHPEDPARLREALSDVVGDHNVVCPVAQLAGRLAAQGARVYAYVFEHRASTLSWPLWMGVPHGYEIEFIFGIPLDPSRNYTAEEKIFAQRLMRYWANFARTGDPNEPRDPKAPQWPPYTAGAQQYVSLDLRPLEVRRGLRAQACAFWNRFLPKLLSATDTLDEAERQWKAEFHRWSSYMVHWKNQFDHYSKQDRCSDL

[3] = target: T2, Amine oxidase [flavin-containing] B (Homo sapiens, UniProt P27338); assay: Inhibition of human recombinant MAO-B assessed as reduction in 4-hydroxyquinoline level using kynuramine as a substrate preincubated for 5 mins followed by substrate addition by spectrofluorimetric analysis
T2 sequence (P27338 whole entry): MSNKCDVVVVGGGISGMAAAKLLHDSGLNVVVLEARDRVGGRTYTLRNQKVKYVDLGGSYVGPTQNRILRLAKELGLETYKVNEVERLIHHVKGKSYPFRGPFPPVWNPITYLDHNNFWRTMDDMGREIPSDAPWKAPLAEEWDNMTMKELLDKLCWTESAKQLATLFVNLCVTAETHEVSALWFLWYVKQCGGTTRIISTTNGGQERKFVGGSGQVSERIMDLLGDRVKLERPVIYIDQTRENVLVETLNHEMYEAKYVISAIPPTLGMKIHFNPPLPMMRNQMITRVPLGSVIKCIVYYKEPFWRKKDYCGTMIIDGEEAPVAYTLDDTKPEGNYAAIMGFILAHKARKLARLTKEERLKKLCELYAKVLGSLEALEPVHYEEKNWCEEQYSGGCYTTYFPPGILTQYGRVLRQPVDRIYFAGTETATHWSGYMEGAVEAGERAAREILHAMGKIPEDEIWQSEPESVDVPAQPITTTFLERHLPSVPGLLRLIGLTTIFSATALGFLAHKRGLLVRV

[4] = target: Amyloid-beta precursor protein (Homo sapiens) (UniProt P05067); assay: Inhibition of amyloid beta (1 to 40) (unknown origin) self aggregation at 10 uM incubated for 2 hrs by ThT fluorescence assay
Sequence of Amyloid-beta precursor protein (Homo sapiens) (P05067 whole entry): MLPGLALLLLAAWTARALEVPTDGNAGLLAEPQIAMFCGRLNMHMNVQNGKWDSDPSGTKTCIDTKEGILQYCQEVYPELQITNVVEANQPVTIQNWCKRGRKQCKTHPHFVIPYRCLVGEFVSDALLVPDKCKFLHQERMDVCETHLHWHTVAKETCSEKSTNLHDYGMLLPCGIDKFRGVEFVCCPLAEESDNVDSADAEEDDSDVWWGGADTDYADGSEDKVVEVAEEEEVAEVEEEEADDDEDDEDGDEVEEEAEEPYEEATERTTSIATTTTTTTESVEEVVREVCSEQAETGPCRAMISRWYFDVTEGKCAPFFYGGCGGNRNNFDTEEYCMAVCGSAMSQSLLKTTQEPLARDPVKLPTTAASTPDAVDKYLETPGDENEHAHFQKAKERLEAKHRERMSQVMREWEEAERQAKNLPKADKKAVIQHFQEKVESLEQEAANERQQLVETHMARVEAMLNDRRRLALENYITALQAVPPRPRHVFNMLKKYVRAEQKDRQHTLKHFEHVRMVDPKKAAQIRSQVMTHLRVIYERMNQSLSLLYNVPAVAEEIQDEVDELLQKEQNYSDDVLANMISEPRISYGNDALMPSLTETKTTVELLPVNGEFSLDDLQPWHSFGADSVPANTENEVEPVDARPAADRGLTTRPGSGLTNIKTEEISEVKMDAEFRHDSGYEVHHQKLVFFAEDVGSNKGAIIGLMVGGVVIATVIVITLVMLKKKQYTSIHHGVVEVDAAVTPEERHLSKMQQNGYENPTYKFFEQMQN

[5] = target: T3, Amine oxidase [flavin-containing] A (Homo sapiens, UniProt P21397); assay: Inhibition of human recombinant MAO-A assessed as reduction in 4-hydroxyquinoline level using kynuramine as a substrate preincubated for 5 mins followed by substrate addition by spectrofluorimetric analysis
T3 sequence (P21397 whole entry): T1 sequence (P21397 whole entry)

CCN(CC)Cc1ccc(/C=C2\Cc3ccccc3C2=O)cc1
inhibition at 10 µM [1]: 42.7%
inhibition [2]: 17.8%
IC50 (Acetylcholinesterase): 612 nM
IC50 [3]: 661 nM

CCN(CC)Cc1ccc(/C=C2\Cc3cc(OC)c(OC)cc3C2=O)cc1
inhibition at 10 µM [1]: 49.6%
IC50 (Acetylcholinesterase): 63 nM
IC50 [3]: 783 nM

CCN(CC)Cc1ccc(C=C2Cc3ccccc3C2=O)cc1
inhibition [4]: 8.1%
inhibition [2]: 16.2%
IC50 (Acetylcholinesterase): 1310 nM

CCN(CC)Cc1ccc(/C=C2/Cc3cc(OC)ccc3C2=O)cc1
inhibition [4]: 23.4%
inhibition at 10 µM [1]: 28.2%
IC50 (Acetylcholinesterase): 1150 nM
IC50 [3]: 1940 nM

O=c1c(O)c(-c2ccc(O)c(O)c2)oc2cc(O)cc(O)c12
inhibition [4]: 84.4%

CCN(CC)Cc1ccc(C=C2Cc3ccc(OC)cc3C2=O)cc1
inhibition [4]: 37.7%
inhibition [2]: 8.3%
IC50 (Acetylcholinesterase): 1100 nM

CCN(CC)Cc1ccc(C=C2Cc3cc(OC)ccc3C2=O)cc1
inhibition at 10 µM [1]: 45.1%
IC50 (Acetylcholinesterase): 505 nM

CCN(CC)Cc1ccc(C=C2Cc3cc(OC)c(OC)cc3C2=O)cc1
inhibition [4]: 56%
IC50 (Acetylcholinesterase): 253 nM

CCN(CC)Cc1ccc(/C=C2\Cc3ccc(OC)cc3C2=O)cc1
inhibition [2]: 14.3%
IC50 (Acetylcholinesterase): 964 nM
IC50 [5]: 95 nM
IC50 [3]: 91 nM

CCN(CC)Cc1ccc(/C=C2\Cc3cc(OC)ccc3C2=O)cc1
inhibition [4]: 7.4%
inhibition at 10 µM [1]: 32.8%
IC50 (Acetylcholinesterase): 113 nM
